Test system: patients after acute myocardial infarction
Assay: TCM symptom score, total and single (chest pain, chest tightness, short breath, fatigue, palpitation, spontaneous perspiration, pale complexion), same clinical trial
Assay type: in vivo, human
Parameters: total score of TCM symptom, Mean / total score of TCM symptom, Min / total score of TCM symptom, Max / total score of TCM symptom, Md / change of total score of TCM symptom, Mean / change of total score of TCM symptom, Max / change of total score of TCM symptom, Md: scale not given here
Conditions: PP
Source text: 3508 patients who were in accordance with the diagnostic standards of AMI for 28 days to 2 years and differentiated as Qi deficiency and blood stagnation syndrome by TCM were studied. 0.5 g Chinese medicine composition prepared by the method of EXAMPLE 1 (Coded as QSYQ) was administrated half an hour after meal, 3 times per day.
They included the overall survival time, angina pectoris score, TCM symptom score and life quality score, where angina pectoris score, TCM symptom score and life quality score were evaluated at randomization, in 1st, 3rd, 6th, 9th, 12th month after treatment and 18th month after follow-up.
The analysis method referred to the angina pectoris score.

[1] = 1 month after treatment-baseline
[2] = 3 month after treatment-baseline
[3] = 3 months after treatment-baseline

SMILES: CC(=O)Oc1ccccc1C(=O)O [Control group, aspirine]
- change of palpitation −3, number of patients [1]: 0
- change of palpitation −3, percent of patients [1]: (0.00%)
- change of short breath 0, % of patients [1]: (77.53%)
- change of short breath 0, number of patients [1]: 1132
- change of short breath 2, % of patients [1]: (14.59%)
- change of short breath 2, number of patients [1]: 213
- change of short breath 4, % of patients [1]: (1.71%)
- change of short breath 4, number of patients [1]: 25
- change of short breath 6, % of patients [1]: (0.41%)
- change of short breath 6, number of patients [1]: 6
- change of short breath −2, % of patients [1]: (5.27%)
- change of short breath −2, number of patients [1]: 77
- change of short breath −4, % of patients [1]: (0.48%)
- change of short breath −4, number of patients [1]: 7
- change of short breath −6, % of patients [1]: (0.00%)
- change of short breath −6, number of patients [1]: 0
- change of spontaneous perspiration 0, number of patients [1]: 1068
- change of spontaneous perspiration 0, percent of patients [1]: (73.15%)
- change of spontaneous perspiration 1, number of patients [1]: 238
- change of spontaneous perspiration 1, percent of patients [1]: (16.30%)
- change of spontaneous perspiration 2, number of patients [1]: 48
- change of spontaneous perspiration 2, percent of patients [1]: (3.29%)
- change of spontaneous perspiration 3, number of patients [1]: 12
- change of spontaneous perspiration 3, percent of patients [1]: (0.82%)
- change of spontaneous perspiration −1, number of patients [1]: 77
- change of spontaneous perspiration −1, percent of patients [1]: (5.27%)
- change of spontaneous perspiration −2, number of patients [1]: 14
- change of spontaneous perspiration −2, percent of patients [1]: (0.96%)
- change of spontaneous perspiration −3, number of patients [1]: 3
- change of spontaneous perspiration −3, percent of patients [1]: (0.21%)
- change of total score of TCM symptom, Max [1]: 24.00
- change of total score of TCM symptom, Md [1]: −1.00
- change of total score of TCM symptom, Mean [1]: −2.00
- change of total score of TCM symptom, Min [1]: −28.00
- change of total score of TCM symptom, Max [2]: 19.00
- change of total score of TCM symptom, Md [2]: −2.00
- change of total score of TCM symptom, Mean [2]: −3.05
- change of total score of TCM symptom, Min [2]: −28.00
- distribution of total score of TCM symptom: Medium, number of patients (3 months after treatment): 489
- distribution of total score of TCM symptom: Medium, percentage of patients (3 months after treatment): (33.79%)
- distribution of total score of TCM symptom: Mild, number of patients (3 months after treatment): 946
- distribution of total score of TCM symptom: Mild, percentage of patients (3 months after treatment): (65.38%)
- distribution of total score of TCM symptom: Severe, number of patients (3 months after treatment): 12
- distribution of total score of TCM symptom: Severe, percentage of patients (3 months after treatment): (0.83%)
- fatigue score 0, % of patients (3 months after treatment): (28.28%)
- fatigue score 0, number of patients (3 months after treatment): 409
- fatigue score 2, % of patients (3 months after treatment): (59.75%)
- fatigue score 2, number of patients (3 months after treatment): 864
- fatigue score 4, % of patients (3 months after treatment): (11.41%)
- fatigue score 4, number of patients (3 months after treatment): 165
- fatigue score 6, % of patients (3 months after treatment): (0.55%)
- fatigue score 6, number of patients (3 months after treatment): 8
- pale complexion score 0, number of patients (3 months after treatment): 693
- pale complexion score 0, percent of patients (3 months after treatment): (47.89%)
- pale complexion score 1, number of patients (3 months after treatment): 566
- pale complexion score 1, percent of patients (3 months after treatment): (39.12%)
- pale complexion score 2, number of patients (3 months after treatment): 172
- pale complexion score 2, percent of patients (3 months after treatment): (11.89%)
- pale complexion score 3, number of patients (3 months after treatment): 16
- pale complexion score 3, percent of patients (3 months after treatment): (1.11%)
- palpitation score 0, number of patients (3 months after treatment): 403
- palpitation score 0, percent of patients (3 months after treatment): (27.87%)
- palpitation score 2, number of patients (3 months after treatment): 759
- palpitation score 2, percent of patients (3 months after treatment): (52.49%)
- palpitation score 4, number of patients (3 months after treatment): 261
- palpitation score 4, percent of patients (3 months after treatment): (18.05%)
- palpitation score 6, number of patients (3 months after treatment): 23
- palpitation score 6, percent of patients (3 months after treatment): (1.59%)
- short breath score 0, % of patients (3 months after treatment): (21.44%)
- short breath score 0, number of patients (3 months after treatment): 310
- short breath score 3, % of patients (3 months after treatment): (59.13%)
- short breath score 3, number of patients (3 months after treatment): 855
- short breath score 6, % of patients (3 months after treatment): (18.74%)
- short breath score 6, number of patients (3 months after treatment): 271
- short breath score 9, % of patients (3 months after treatment): (0.69%)
- short breath score 9, number of patients (3 months after treatment): 10
- spontaneous perspiration score 0, number of patients (3 months after treatment): 563
- spontaneous perspiration score 0, percent of patients (3 months after treatment): (38.93%)
- spontaneous perspiration score 1, number of patients (3 months after treatment): 709
- spontaneous perspiration score 1, percent of patients (3 months after treatment): (49.03%)
- spontaneous perspiration score 2, number of patients (3 months after treatment): 167
- spontaneous perspiration score 3, number of patients (3 months after treatment): 7
- spontaneous perspiration score 3, percent of patients (3 months after treatment): (0.48%)
- total score of TCM symptom, Max (3 months after treatment): 33.00
- total score of TCM symptom, Md (3 months after treatment): 10.00
- total score of TCM symptom, Mean (3 months after treatment): 10.88
- total score of TCM symptom, Min (3 months after treatment): 0.00
- change of fatigue 0, % of patients [3]: (63.96%)
- change of fatigue 0, number of patients [3]: 923
- change of fatigue 2, % of patients [3]: (25.50%)
- change of fatigue 2, number of patients [3]: 368
- change of fatigue 4, % of patients [3]: (4.16%)
- change of fatigue 4, number of patients [3]: 60
- change of fatigue 6, % of patients [3]: (0.97%)
- change of fatigue 6, number of patients [3]: 14
- change of fatigue −2, % of patients [3]: (4.85%)
- change of fatigue −2, number of patients [3]: 70
- change of fatigue −4, % of patients [3]: (0.42%)
- change of fatigue −4, number of patients [3]: 6
- change of fatigue −6, % of patients [3]: (0.14%)
- change of fatigue −6, number of patients [3]: 2
- change of pale complexion 0, number of patients [3]: 1177
- change of pale complexion 0, percent of patients [3]: (81.68%)
- change of pale complexion 1, number of patients [3]: 217
- change of pale complexion 1, percent of patients [3]: (15.06%)
- change of pale complexion −1, number of patients [3]: 47
- change of pale complexion −1, percent of patients [3]: (3.26%)
- change of palpitation 0, number of patients [3]: 943
- change of palpitation 0, percent of patients [3]: (65.35%)
- change of palpitation 1, number of patients [3]: 356
- change of palpitation 1, percent of patients [3]: (24.67%)
- change of palpitation 2, number of patients [3]: 39
- change of palpitation 2, percent of patients [3]: (2.70%)
- change of palpitation 3, number of patients [3]: 5
- change of palpitation 3, percent of patients [3]: (0.35%)
- change of palpitation −1, number of patients [3]: 99
- change of palpitation −1, percent of patients [3]: (6.86%)
- change of palpitation −2, number of patients [3]: 1
- change of palpitation −2, percent of patients [3]: (0.07%)
- change of palpitation −3, number of patients [3]: 0
- change of palpitation −3, percent of patients [3]: (0.00%)
- change of short breath 0, % of patients [3]: (70.27%)
- change of short breath 0, number of patients [3]: 1014
- change of short breath 2, % of patients [3]: (21.41%)

Source: patent US9211310B2, “Use of a Chinese medicine composition in preparing medicaments for treating secondary prevention of myocardial infarction” (TASLY PHARMACEUTICAL GROUP CO., LTD, priority 2010, dated 2015)
